This assay relates to ADP-induced human platelet aggregation. Description: Inhibition of ADP-mediated platelet aggregation in vitro (PRP assay). The class given is cell-based. Conditions: 2 μM ADP, 96-well microtiter assay. The protocol: I. Inhibition of ADP-Mediated Platelet Aggregation In Vitro
The effect of testing the compound according to the invention on ADP-induced human platelet aggregation is preferably assessed in 96-well microtiter assay (see generally the procedures in Jantzen, H. M. et al. (1999) Thromb. Hemost. 81:111–117). Human venous blood is collected from healthy, drug-free volunteers into ACD (85 mM sodium citrate, 111 mM glucose, 71.4 mM citric acid) containing PGI2 (1.25 ml ACD containing 1.6 μM PGI2/10 ml blood; PGI2 was from Sigma, St. Louis, Mo.). Platelet-rich plasma (PRP) is prepared by centrifugation at 160×g for 20 minutes at room temperature. Washed platelets are prepared by centrifuging PRP for 10 minutes at 730×g and resuspending the platelet pellet in CGS (13 mM sodium citrate, 30 mM glucose, 120 mM NaCl; 2 ml CGS/10 ml original blood volume) containing 1U/ml apyrase (grade V, Sigma, St. Louis, Mo.). After incubation at 37° C. for 15 minutes, the platelets are collected by centrifugation at 730×g for 10 minutes and resuspended at a concentration of 3×10^8 platelets/ml in Hepes-Tyrode's buffer (10 mM Hepes, 138 mM NaCl, 5.5 mM glucose, 2.9 mM KCl, 12 mM NaHCO3, pH 7.4) containing 0.1% bovine serum albumin, 1 mM CaCl2 and 1 mM MgCl2. This platelet suspension is kept >45 minutes at 37° C. before use in aggregation assays.
Inhibition of ADP-dependent aggregation is preferably determined in 96-well flat-bottom microtiter plates using a microtiter plate shaker and plate reader similar to the procedure described by Frantantoni et al., Am. J. Clin. Pathol. 94, 613 (1990). All steps are performed at room temperature. The total reaction volume of 0.2 ml/well includes in Hepes-Tyrodes buffer/0.1% BSA: 4.5×10^7 apyrase-washed platelets, 0.5 mg/ml human fibrinogen (American Diagnostica, Inc., Greenwich, Conn.), serial dilutions of test compounds (buffer for control wells) in 0.6% DMSO. After about 5 minutes preincubation at room temperature, ADP is added to a final concentration of 2 μM which induces submaximal aggregation. Buffer is added instead of ADP to one set of control wells (ADP^− control). The OD of the samples is then determined at 490 nm using a microtiter plate reader (Softmax, Molecular Devices, Menlo Park, Calif.) resulting in the 0 minute reading. The plates are then agitated for 5 min on a microtiter plate shaker and the 5 minute reading is obtained in the plate reader. Aggregation is calculated from the decrease of OD at 490 nm at t=5 minutes compared to t=0 minutes and is expressed as % of the decrease in the ADP control samples after correcting for changes in the unaggregated control samples.
The table below provides activity for selected compounds of the invention, evaluated as described above. In the table below, activity in the PRP assay is provided as follows: +++, IC50<10 μM; ++, 10 μM<IC50<30 μM; and +, IC50>30 μM.

The values below come from US7109332B2, “2,4-dioxo-3-quinazolinylaryl sulfonylureas” (Portola Pharmaceuticals, Inc., priority 2003, dated 2006).

In turn, `O=C(Nc1ccc(-n2c(=O)[nH]c3cc(NCc4ccccc4)ccc3c2=O)cc1)NS(=O)(=O)c1ccc(Cl)s1` [Example 3] gave an IC50 of less than 10 µM.
The molecule `Cc1cc(-n2c(=O)[nH]c3cc(NCc4ccc(F)cc4)ccc3c2=O)ccc1NC(=O)NS(=O)(=O)c1ccc(Cl)s1` [Example 5, 1-(4-(7-(4-fluorobenzylamino)-2,4-dioxo-1,2-dihydroquinazolin-3(4H)-yl)-2-methylphenyl)-3-(5-chlorothiophen-2-ylsulfonyl)urea] had an IC50 of less than 10 µM.
In the case of `O=C(Nc1ccc(-n2c(=O)[nH]c3cc(NCc4ccc(Cl)cc4)ccc3c2=O)cc1)NS(=O)(=O)c1ccc(Cl)s1` [Example 12] it was less than 10 µM; in that of `Cc1cc(NC(=O)NS(=O)(=O)c2cccs2)ccc1-n1c(=O)[nH]c2cc(NCc3ccc(Cl)cc3)ccc2c1=O` [Example 16], less than 10 µM.
The value for `O=C(Nc1ccc(-n2c(=O)[nH]c3cc(NCc4ccc(F)cc4)ccc3c2=O)cc1)NS(=O)(=O)c1ccc(Cl)s1` [Example 21] was less than 10 µM.
As for `COc1cccc(CNc2ccc3c(=O)n(-c4ccc(NC(=O)NS(=O)(=O)c5ccc(Cl)s5)cc4)c(=O)[nH]c3c2)c1` [Example 41], the IC50 was in the range of 10 to 30 µM.
Molecule `O=C(Nc1ccc(-n2c(=O)[nH]c3cc(NCc4ccc(Cl)s4)ccc3c2=O)cc1)NS(=O)(=O)c1ccc(Cl)s1` [Example 51] yielded an IC50 of less than 10 µM.
Consider `Cc1csc(CNc2ccc3c(=O)n(-c4ccc(NC(=O)NS(=O)(=O)c5ccc(Cl)s5)cc4)c(=O)[nH]c3c2)c1` [Example 53], for which the IC50 was 10 to 30 µM.
In the case of `O=C(Nc1ccc(-n2c(=O)[nH]c3cc(NCc4ccsc4)ccc3c2=O)cc1)NS(=O)(=O)c1ccc(Cl)s1` [Example 57] it was less than 10 µM; in that of `O=C(Nc1ccc(-n2c(=O)[nH]c3cc(NCc4cncs4)ccc3c2=O)cc1)NS(=O)(=O)c1ccc(Cl)s1` [Example 61], 10 to 30 µM; in that of `Cc1nc(C)c(CNc2ccc3c(=O)n(-c4ccc(NC(=O)NS(=O)(=O)c5ccc(Cl)s5)cc4)c(=O)[nH]c3c2)s1` [Example 65], greater than 30 µM.
`O=C(Nc1ccc(-n2c(=O)[nH]c3cc(NCc4ccc(Cl)o4)ccc3c2=O)cc1)NS(=O)(=O)c1ccc(Cl)s1` [Example 72] showed an IC50 of 10 to 30 µM.
The molecule `Cn1ccnc1CNc1ccc2c(=O)n(-c3ccc(NC(=O)NS(=O)(=O)c4ccc(Cl)s4)cc3)c(=O)[nH]c2c1` [Example 77] yielded an IC50 greater than 30 µM.
In the case of `O=C(Nc1ccc(-n2c(=O)[nH]c3cc(NCc4nc5ccccc5s4)ccc3c2=O)cc1)NS(=O)(=O)c1ccc(Cl)s1` [Example 94], the IC50 is greater than 30 µM.
With `Cc1c(F)cccc1CNc1ccc2c(=O)n(-c3ccc(NC(=O)NS(=O)(=O)c4ccc(Cl)s4)cc3)c(=O)[nH]c2c1` [Example 100], the IC50 was less than 10 µM.
Take `O=C(Nc1ccc(-n2c(=O)[nH]c3cc(NCc4ccc(F)cc4F)ccc3c2=O)cc1)NS(=O)(=O)c1ccc(Cl)s1` [Example 102]: the IC50 was greater than 30 µM.
In turn, `O=C(NS(=O)(=O)c1ccc(Cl)s1)c1ccc(-n2c(=O)[nH]c3cc(NCc4ccc(F)cc4)ccc3c2=O)cc1` [Example 106, 4-(7-(4-fluorobenzylamino)-2,4-dioxo-1,2-dihydroquinazolin-3(4H)-yl)-N-(5-chlorothiophen-2-ylsulfonyl)benzamide] came in with an IC50 of less than 10 µM.
`O=C(NS(=O)(=O)c1ccc(Cl)s1)c1ccc(-n2c(=O)[nH]c3cc(NCc4ccc(F)cc4)ccc3c2=O)cc1F` [Example 113, 4-(7-(4-fluorobenzylamino)-2,4-dioxo-1,2-dihydroquinazolin-3(4H)-yl)-N-(5-chlorothiophen-2-ylsulfonyl)-2-fluorobenzamide] gave an IC50 of less than 10 µM.

In general, IC50 refers to the concentration needed to halve the response being measured. A high value points to weaker potency.
